Laboratory results published in patent US20250304566A1, “CRYSTALLINE FORMS OF (5S)-3-[3-(3-CHLORO-2-FLUOROPHENOXY)-6-METHYLPYRIDAZIN-4-YL]-5-(2-CHLORO-4-METHYLBENZYL)-5,6-DIHYDRO-4H-1,2,4-OXADIAZINE” (priority 2022, published 2025).

Assays:
Format in all cases: physicochemical
[1] = Transition temperature between polymorphic forms A and B (temperature-depending XRPD); conditions: for phase change temperature: temperature-depending XRPD
Method: To obtain crystals of polymorphic form A, a temperature-depending X-ray powder diffraction (XRPD) experiment was performed, in which recrystallization was allowed at different temperatures.

[2] = Slurry experiment (polymorph obtained, XRPD); conditions: for Mod. obtained: 8 days
Method: Compound of formula (I) was suspended in the respective solvent and stirred at 0° C., 40° C. (Mya4 stirrer station at 250 u/min) and 80° C. After three to eight days, an additional amount of solvent was added to the suspensions. In two experiments additional substance were added after four days. After eight days the suspensions were dried at ambient conditions.
The obtained crystals were isolated and analyzed by X-ray powder diffraction (XRPD) spectrometry, DSC and TGA.

[3] = Measurement of Log P values by HPLC on reversed phase columns (EEC directive 79/831 Annex V.A8); conditions: reversed phase HPLC column, acidic range, 0.1% formic acid in water and acetonitrile
Method: Measurement of Log P values Measurement of Log P values as provided herein was performed according to EEC directive 79/831 Annex V.A8 by HPLC (High Performance Liquid Chromatography) on reversed phase columns with method determined by measurement of LC-UV, in an acidic range, with 0.1% formic acid in water and acetonitrile as eluent (linear gradient from 10% acetonitrile to 95% acetonitrile). Calibration was done with straight-chain alkan2-ones (with 3 to 16 carbon atoms) with known Log P values (measurement of Log P values using retention times with linear interpolation between successive alkanones). Lambda-max-values were determined using UV-spectra from 200 nm to 400 nm and the peak values of the chromatographic signals

**Q.** For `Cc1ccc(C[C@H]2CON=C(c3cc(C)nnc3Oc3cccc(Cl)c3F)N2)c(Cl)c1` [polymorphic form A, (5S)-3-[3-(3-chloro-2-fluorophenoxy)-6-methylpyridazin-4-yl]-5-(2-chloro-4-methylbenzyl)-5,6-dihydro-4H-1,2,4-oxadiazine], which thermodynamic stability ([1]; at lower temperatures) is on record?
**A.** very fast transition to polymorphic form B

**Q.** What about the phase change temperature ([1]; on cooling) of the same molecule?
**A.** 40 °C

**Q.** What about the phase change temperature ([1]; on heating) of the same molecule?
**A.** 60 °C

**Q.** For `Cc1ccc(C[C@H]2CON=C(c3cc(C)nnc3Oc3cccc(Cl)c3F)N2)c(Cl)c1` [polymorphic form B, (5S)-3-[3-(3-chloro-2-fluorophenoxy)-6-methylpyridazin-4-yl]-5-(2-chloro-4-methylbenzyl)-5,6-dihydro-4H-1,2,4-oxadiazine], which Mod. obtained ([2]; Exp. No. 1: Mod. B used, CH3CN, 0 °C) is on record?
**A.** Mod. B

**Q.** And the Mod. obtained ([2]; Exp. No. 2: Mod. B used, CH3CN, 40 °C)?
**A.** Mod. B

**Q.** And the Mod. obtained ([2]; Exp. No. 3: Mod. B used, CH3CN/water, 80 °C)?
**A.** Mod. B

**Q.** What about the Mod. obtained ([2]; Exp. No. 4: Mod. B used, Ethanol/water (1:1), 0 °C) of the same molecule?
**A.** Mod. B

**Q.** And the Mod. obtained ([2]; Exp. No. 5: Mod. B used, Ethanol/water (1:1), 40 °C)?
**A.** Mod. B

**Q.** And the Mod. obtained ([2]; Exp. No. 6: Mod. B used, Ethanol/water (1:1), 80 °C)?
**A.** Mod. B

**Q.** And the “stability in slurry experiments: recrystallization events” value ([2]; above the transition temperature range over an extended period of time)?
**A.** No recrystallization events were observed

**Q.** And the thermodynamic stability ([1]; below the transition temperatures (49° C. to 66° C.))?
**A.** thermodynamically stable polymorph

**Q.** Which chromatographic logP [3] does the source give for `Cc1ccc(C[C@H]2CON=C(c3cc(C)nnc3Oc3cccc(Cl)c3F)N2)c(Cl)c1` [compound of formula (I), (5S)-3-[3-(3-chloro-2-fluorophenoxy)-6-methylpyridazin-4-yl]-5-(2-chloro-4-methylbenzyl)-5,6-dihydro-4H-1,2,4-oxadiazine] here?
**A.** 3.88
